In US9730937B2, “RAF kinase modulator compounds and methods of use thereof” (AMBIT BIOSCIENCES CORPORATION, priority 2008, dated 2017) one finds S35 data, which are given here for 23 compounds.

The first assay concerns panel of 290 distinct kinases (321 in the larger panel), excluding mutant variants. The conditions noted are these: asterisk: panel of 321 distinct kinases.
On to `COCCOc1cc2ncnc(Sc3cccc(NC(=O)Nc4ccc(C(F)(F)F)c(F)c4)c3)c2cc1OC` [Ex 231, 1-(3-fluoro-4-(trifluoromethyl)phenyl)-3-(3-(6-methoxy-7-(2-methoxyethoxy)quinazolin-4-ylthio)phenyl)urea], for which the S35 result is “B* (0.10 < B ≦ 0.20)”.
Same read-out and setting: for `COc1cc2ncnc(Sc3cccc(NC(=O)Nc4cc(C(C)(C)F)no4)c3)c2cc1OCCCN1CCS(=O)(=O)CC1` [Ex 245, 1-(3-(2-fluoropropan-2-yl)isoxazol-5-yl)-3-(3-(7-methoxy-6-(4,4-dioxo-3-thiomorpholinopropoxy)quinazolin-4-ylthio)phenyl)urea] the value was “C* (0.20 < C ≦ 0.40)”; for `COCCOc1cc2ncnc(Oc3cccc(NC(=O)Nc4cc(C(C)C)no4)c3)c2cc1OC` [Ex 215, 1-(3-isopropylisoxazol-5-yl)-3-(3-(6-methoxy-7-(2-methoxyethoxy)quinazolin-4-yloxy)phenyl)urea], “C* (0.20 < C ≦ 0.40)”.

Still in this assay, the particulars now being: kinase selectivity score, value marked * (larger kinase panel); class symbols.
As to `COc1cc2ncnc(Sc3cccc(NC(=O)Nc4ccc(C(F)(F)F)cc4)c3)c2cc1OC` [Ex 184, 1-(3-(6,7-dimethoxyquinazolin-4-ylthio)phenyl)-3-(4-(trifluoromethyl)phenyl)urea], the S35 result is recorded as “C* (0.20 < C ≦ 0.40)”.

Still in this assay, the particulars now being: no asterisk: panel of 290 distinct kinases.
Turning to `COc1cc2ncnc(Oc3cccc(NC(=O)Nc4cc(C(C)(C)C)nn4-c4cnccc4C)c3)c2cc1OC` [Ex 303, 1-(3-tert-butyl-1-(4-methylpyridin-3-yl)-1H-pyrazol-5-yl)-3-(3-(6,7-dimethoxyquinazolin-4-yloxy)phenyl)urea], the S35 entry is “D (D > 0.40)”.
For `COc1cc2ncnc(Oc3cccc(NC(=O)Nc4cc(C(C)(C)C)nn4-c4ccc(C(C)(C)C)cc4)c3)c2cc1OC` [Ex 369, 1-(3-tert-butyl-1-(4-tert-butylphenyl)-1H-pyrazol-5-yl)-3-(3-(6,7-dimethoxyquinazolin-4-yloxy)phenyl)urea], the S35 result was “C (0.20 < C ≦ 0.40)”.
`COc1cc2ncnc(Oc3cccc(NC(=O)Nc4cc(C(C)(C)C)nn4-c4cccc(C(F)(F)F)c4)c3)c2cc1OC` [Ex 379, 1-(3-tert-butyl-1-(3-(trifluoromethyl)phenyl)-1H-pyrazol-5-yl)-3-(3-(6,7-dimethoxyquinazolin-4-yloxy)phenyl)urea]: the S35 result is “D (D > 0.40)”.
The same measure, in the same setting: next, `CCOc1cc2c(Oc3cccc(NC(=O)Nc4cc(C(C)(CF)CF)on4)c3)ncnc2cc1OC` [Ex 393, 1-(5-(1,3-difluoro-2-methylpropan-2-yl)isoxazol-3-yl)-3-(3-(6-ethoxy-7-methoxyquinazolin-4-yloxy)phenyl)urea]: “C (0.20 < C ≦ 0.40)”; `CCOc1cc2c(Sc3cccc(NC(=O)Nc4cc(C(C)(CF)CF)on4)c3)ncnc2cc1OC` [Ex 395, 1-(5-(1,3-difluoro-2-methylpropan-2-yl)isoxazol-3-yl)-3-(3-(6-ethoxy-7-methoxyquinazolin-4-ylthio)phenyl)urea]: “C (0.20 < C ≦ 0.40)”.
On to `COc1cc2ncnc(Sc3cccc(NC(=O)Nc4cc(C5(C(F)(F)F)CC5)nn4-c4ccccc4)c3)c2cc1OC` [Ex 383, 1-(3-(6,7-dimethoxyquinazolin-4-ylthio)phenyl)-3-(1-phenyl-3-(1-(trifluoromethyl)cyclopropyl)-1H-pyrazol-5-yl)urea], for which the S35 result was “C (0.20 < C ≦ 0.40)”.
`COc1cc2ncnc(Sc3cccc(NC(=O)Nc4cc(C(C)(C)C)nn4-c4ccc(Cl)cc4)c3)c2cc1OC` [Ex 366, 1-(3-tert-butyl-1-(4-chlorophenyl)-1H-pyrazol-5-yl)-3-(3-(6,7-dimethoxyquinazolin-4-ylthio)phenyl)urea]: the S35 result is “D (D > 0.40)”.
Take `CCOc1cc2ncnc(Oc3cccc(NC(=O)Nc4cc(C(C)(CF)CF)on4)c3)c2cc1OC` [Ex 386, 1-(5-(1,3-difluoro-2-methylpropan-2-yl)isoxazol-3-yl)-3-(3-(7-ethoxy-6-methoxyquinazolin-4-yloxy)phenyl)urea]: the S35 entry is reported as “C (0.20 < C ≦ 0.40)”.
Regarding `CCOc1cc2c(Oc3cccc(NC(=O)Nc4cc(C(C)(C)C(F)(F)F)on4)c3)ncnc2cc1OC` [Ex 260, 1-(3-(6-ethoxy-7-methoxyquinazolin-4-yloxy)phenyl)-3-(5-(1,1,1-trifluoro-2-methylpropan-2-yl)isoxazol-3-yl)urea], the S35 entry is recorded as “C (0.20 < C ≦ 0.40)”.
`COc1cc2ncnc(Oc3cccc(NC(=O)Nc4cc(C(C)(C)C(F)(F)F)no4)c3)c2cc1OC` [Ex 267, 1-(3-(6,7-dimethoxyquinazolin-4-yloxy)phenyl)-3-(3-(1,1,1-trifluoro-2-methylpropan-2-yl)isoxazol-5-yl)urea]: the S35 entry is on record as “C (0.20 < C ≦ 0.40)”.
With `COc1cc2c(Oc3cccc(NC(=O)Nc4cc(C(C)(C)C)on4)c3)ncnc2cc1OCCCN1CCS(=O)(=O)CC1` [Ex 256, 1-(5-tert-butyl-isoxazol-3-yl)-3-(3-{7-[3-(1,1-dioxo-thiomorpholin-4-yl)-propoxy]-6-methoxy-quinazolin-4-yloxy}-phenyl)-urea], the S35 entry is given as “D (D > 0.40)”.
With `COc1cc2ncnc(Oc3cccc(NC(=O)Nc4cnn(C(C)(C)C)c4)c3)c2cc1OC` [Ex 252, 1-(1-tert-butyl-1H-pyrazol-4-yl)-3-(3-(6,7-dimethoxyquinazolin-4-yloxy)phenyl)urea], the S35 result is “C (0.20 < C ≦ 0.40)”.
As to `COc1cc2ncnc(Oc3cccc(NC(=O)Nc4cccc(C(C)(C)C#N)c4)c3)c2cc1OC` [Ex 278, 1-(3-(2-cyanopropan-2-yl)phenyl)-3-(3-(6,7-dimethoxyquinazolin-4-yloxy)phenyl)urea], the S35 entry is listed as “C (0.20 < C ≦ 0.40)”.
As for `COc1cc2ncnc(Oc3cccc(NC(=O)Nc4cc(C(C)(C)C(F)(F)F)on4)c3F)c2cc1OC` [Ex 265, 1-(3-(6,7-dimethoxyquinazolin-4-yloxy)-2-fluorophenyl)-3-(5-(1,1,1-trifluoro-2-methylpropan-2-yl)isoxazol-3-yl)urea], the S35 entry is given as “C (0.20 < C ≦ 0.40)”.
Same read-out and setting: next, `COc1cc2ncnc(Oc3cc(NC(=O)Nc4cc(C(C)(C)C)nn4-c4ccccc4)c(F)cc3F)c2cc1OC` [Ex 273, 1-(3-tert-butyl-1-phenyl-1H-pyrazol-5-yl)-3-(5-(6,7-dimethoxyquinazolin-4-yloxy)-2,4-difluorophenyl)urea]: “D (D > 0.40)”.
On to `COc1cc2ncnc(Oc3cccc(NC(=O)Nc4cc(C(C)(C)CN5CCOCC5)on4)c3)c2cc1OC` [Ex 302, 1-(3-(6,7-dimethoxyquinazolin-4-yloxy)phenyl)-3-(5-(2-methyl-1-morpholinopropan-2-yl)isoxazol-3-yl)urea], for which the S35 entry is given as “B (0.10 < B ≦ 0.20)”.
As to `COc1ccc(-n2nc(C(C)(C)C)cc2NC(=O)Nc2cccc(Oc3ncnc4cc(OC)c(OC)cc34)c2)cc1` [Ex 361, 1-(3-tert-butyl-1-(4-methoxyphenyl)-1H-pyrazol-5-yl)-3-(3-(6,7-dimethoxyquinazolin-4-yloxy)phenyl)urea], the S35 result is listed as “C (0.20 < C ≦ 0.40)”.
In the case of `CCOc1cc2c(Sc3cccc(NC(=O)Nc4cc(C(C)(C)C(F)(F)F)on4)c3)ncnc2cc1OC` [Ex 262, 1-(3-(6-ethoxy-7-methoxyquinazolin-4-ylthio)phenyl)-3-(5-(1,1,1-trifluoro-2-methylpropan-2-yl)isoxazol-3-yl)urea], the S35 result is on record as “C (0.20 < C ≦ 0.40)”.
As for `COc1cc2ncnc(Sc3cccc(NC(=O)Nc4cc(C5CCC5)nn4-c4ccccc4)c3)c2cc1OC` [Ex 356, 1-(3-cyclobutyl-1-phenyl-1H-pyrazol-5-yl)-3-(3-(6,7-dimethoxyquinazolin-4-ylthio)phenyl)urea], the S35 result is “C (0.20 < C ≦ 0.40)”.
